These results are taken from patent US20200262877A1, “ION CHANNEL-BINDING PEPTIDES AND METHODS OF USE THEREOF” (priority 2017, published 2020).

In data set [1] the target is Nav1.3 sodium channel (human SCN3A gene) (Homo sapiens, UniProt Q9NY46). Nature of the data set: cell-based. The arrangement: host or cells: CHO. The note with it: human Nav1.3 in CHO cells.
Data set [2] addresses T1, Kv1.3 (Homo sapiens, UniProt P22001).
T1 construct: host or cells: HEK293 or CHO
Put plainly: cell-based. Type of data set: cell-based. The note with it: for activity at 20 µM: peptide at 20 μM. The procedure, abridged:
(§1)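 Peptides were tested in duplicate at final 20 μM and 200 nM, with concentration set by amino acid analysis, in HEPES-buffered saline. They were applied for at least 5 min to HEK293 or CHO cells transfected with each channel. Currents were expressed as % inhibition, 1-(Ipeptide/Icontrol)×100, or % activation, Ipeptide/Icontrol×100, against a channel-matched reference compound.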

Data set [3] has as its target Nav1.7 sodium channel (human SCN9A gene) (Homo sapiens, UniProt Q15858). Put plainly: cell-based. The note with it: human Nav1.7 in CHO cells. The arrangement: expressed in transfected cells; host or cells: CHO cells.
Another data set deals with panel of 20 ion channels. The data set is classed as cell-based. The note with it: potassium channels of the panel; 0.2 or 20 μM; FIG. 2. On the procedure: This example describes a method for assaying ion channel activity in cells.
Peptides were screened in duplicate at final concentrations of 20 μM and 200 nM, as determined by amino acid analysis, and diluted into HEPES buffered physiological saline (HBPS). HEK293 or CHO cells from the American Type Culture Collection (ATCC) were transfected with the appropriate ion channel before use. HEK293 cells were grown in Dulbecco's Modified Eagle Medium/Nutrient Mixture F-12, and CHO cells were cultured in Ham's F-12 media. All cultures were supplemented with 10% fetal bovine serum, 100 U/ml penicillin G, 100 μg/ml streptomycin sulfate, and the appropriate selection antibiotics. Prior to use, cells were washed twice with Hank's Balanced Salt Solution, and treated with Accutase cell detachment solution (Sigma-Aldrich). Cells were then washed. Peptides and controls were incubated with cells for at least five minutes.
Percent inhibition was defined as: (1-(Ipeptide/Icontrol))×100%).
Percent values were calculated using the following formula: % activation=(IPeptide/Icontrol)×100%, where IPeptide is the current produced by co-application a peptide with agonist, and Icontrol refers to the current produced by stimulation in control. Control used for each ion channel is the reference compound matched to a particular channel, as illustrated in TABLE 10 below.

For data set [4], the target named is Kv1.3 potassium channel (human KCNA3 gene) (Homo sapiens, UniProt P22001). Nature of the data set: cell-based. The arrangement: host or cells: CHO. The note with it: human Kv1.3 in CHO cells.
The target in a further data set is hERG (Homo sapiens, UniProt Q12809). Nature of the data set: in vitro. The note with it: 0.2 or 20 μM; FIG. 2. The procedure, abridged: as §1
Data set [5] deals with T2, Nav1.5 cardiac sodium channel (human SCN5A gene) (Homo sapiens, UniProt Q14524). The note with it: read-out: IC50 Nav1.5 ion channel inhibition, TP2; human Nav1.5 in CHO cells; TP2 (inactivated state inhibition).
The target in data set [6] is Kv1.5 potassium channel (human KCNA5 gene) (Homo sapiens, UniProt P22460). Nature of the data set: cell-based. The arrangement: host or cells: CHO. The note with it: human Kv1.5 in CHO cells.
For data set [7], the target named is Nav1.4 sodium channel (human SCN4A gene) (Homo sapiens, UniProt P35499). Put plainly: cell-based. The arrangement: host or cells: CHO. The note with it: human Nav1.4 in CHO cells.
Data set [8] addresses T2, Nav1.5 cardiac sodium channel (human SCN5A gene). Put plainly: cell-based.
The target in a further data set is T3, Nav1.7 (Homo sapiens, UniProt Q15858).
T3 construct: host or cells: HEK293 or CHO
Nature of the data set: cell-based. Type of data set: cell-based. The note with it: 0.2 or 20 μM; FIG. 2.

The next data set concerns the target T4, Kv1.1 (Homo sapiens, UniProt Q09470).
T4 construct: host or cells: HEK293 or CHO
Put plainly: cell-based. The data set is classed as cell-based. The note with it: Kv1.1; peptide at 20 μM; percentage of control, 100% = no change; read-out: Ion channel activity (ion channel inhibition). The procedure, abridged: as §1

The target of data set [9] is T2, Nav1.5 cardiac sodium channel (human SCN5A gene). Nature of the data set: in vitro.
In data set [10] the target is T1, Kv1.3. The note with it: prior reports; cited from earlier work.
Where [11] appears, read: TP1 (tonic inhibition), read-out: IC50 Nav1.3 ion channel inhibition, TP1.
Setting [12] is: TP2 (inactivated state inhibition), read-out: IC50 Nav1.3 ion channel inhibition, TP2.
Setting [13] is: Kv1.3, percentage of control, 100% = no change, read-out: Ion channel activity (ion channel inhibition).
Setting [14] is: TP1 (tonic inhibition), read-out: IC50 Nav1.7 ion channel inhibition, TP1.
[15] abbreviates: TP2 (inactivated state inhibition), read-out: IC50 Nav1.7 ion channel inhibition, TP2.
[16] abbreviates: test pulse TP1, read-out: IC50 Kv1.3 ion channel inhibition, TP1.
Setting [17] is: test pulse TP6, read-out: IC50 Kv1.3 ion channel inhibition, TP6.
Setting [18] is: test pulse TP1, read-out: IC50 Kv1.5 ion channel inhibition, TP1.
Setting [19] is: test pulse TP6, read-out: IC50 Kv1.5 ion channel inhibition, TP6.
The mark [20] stands for this setting: TP1 (tonic inhibition), read-out: IC50 Nav1.4 ion channel inhibition, TP1.
Where [21] appears, read: TP2 (inactivated state inhibition), read-out: IC50 Nav1.4 ion channel inhibition, TP2.

Read-outs that look alike come from different tables or passages of the source. Where a SMILES comes first, the peptide text is derived from it. Bridges are numbered along the chain shown (N, C = ends).

Chain of Nav1.3 sodium channel (human SCN3A gene) (Q9NY46 whole entry): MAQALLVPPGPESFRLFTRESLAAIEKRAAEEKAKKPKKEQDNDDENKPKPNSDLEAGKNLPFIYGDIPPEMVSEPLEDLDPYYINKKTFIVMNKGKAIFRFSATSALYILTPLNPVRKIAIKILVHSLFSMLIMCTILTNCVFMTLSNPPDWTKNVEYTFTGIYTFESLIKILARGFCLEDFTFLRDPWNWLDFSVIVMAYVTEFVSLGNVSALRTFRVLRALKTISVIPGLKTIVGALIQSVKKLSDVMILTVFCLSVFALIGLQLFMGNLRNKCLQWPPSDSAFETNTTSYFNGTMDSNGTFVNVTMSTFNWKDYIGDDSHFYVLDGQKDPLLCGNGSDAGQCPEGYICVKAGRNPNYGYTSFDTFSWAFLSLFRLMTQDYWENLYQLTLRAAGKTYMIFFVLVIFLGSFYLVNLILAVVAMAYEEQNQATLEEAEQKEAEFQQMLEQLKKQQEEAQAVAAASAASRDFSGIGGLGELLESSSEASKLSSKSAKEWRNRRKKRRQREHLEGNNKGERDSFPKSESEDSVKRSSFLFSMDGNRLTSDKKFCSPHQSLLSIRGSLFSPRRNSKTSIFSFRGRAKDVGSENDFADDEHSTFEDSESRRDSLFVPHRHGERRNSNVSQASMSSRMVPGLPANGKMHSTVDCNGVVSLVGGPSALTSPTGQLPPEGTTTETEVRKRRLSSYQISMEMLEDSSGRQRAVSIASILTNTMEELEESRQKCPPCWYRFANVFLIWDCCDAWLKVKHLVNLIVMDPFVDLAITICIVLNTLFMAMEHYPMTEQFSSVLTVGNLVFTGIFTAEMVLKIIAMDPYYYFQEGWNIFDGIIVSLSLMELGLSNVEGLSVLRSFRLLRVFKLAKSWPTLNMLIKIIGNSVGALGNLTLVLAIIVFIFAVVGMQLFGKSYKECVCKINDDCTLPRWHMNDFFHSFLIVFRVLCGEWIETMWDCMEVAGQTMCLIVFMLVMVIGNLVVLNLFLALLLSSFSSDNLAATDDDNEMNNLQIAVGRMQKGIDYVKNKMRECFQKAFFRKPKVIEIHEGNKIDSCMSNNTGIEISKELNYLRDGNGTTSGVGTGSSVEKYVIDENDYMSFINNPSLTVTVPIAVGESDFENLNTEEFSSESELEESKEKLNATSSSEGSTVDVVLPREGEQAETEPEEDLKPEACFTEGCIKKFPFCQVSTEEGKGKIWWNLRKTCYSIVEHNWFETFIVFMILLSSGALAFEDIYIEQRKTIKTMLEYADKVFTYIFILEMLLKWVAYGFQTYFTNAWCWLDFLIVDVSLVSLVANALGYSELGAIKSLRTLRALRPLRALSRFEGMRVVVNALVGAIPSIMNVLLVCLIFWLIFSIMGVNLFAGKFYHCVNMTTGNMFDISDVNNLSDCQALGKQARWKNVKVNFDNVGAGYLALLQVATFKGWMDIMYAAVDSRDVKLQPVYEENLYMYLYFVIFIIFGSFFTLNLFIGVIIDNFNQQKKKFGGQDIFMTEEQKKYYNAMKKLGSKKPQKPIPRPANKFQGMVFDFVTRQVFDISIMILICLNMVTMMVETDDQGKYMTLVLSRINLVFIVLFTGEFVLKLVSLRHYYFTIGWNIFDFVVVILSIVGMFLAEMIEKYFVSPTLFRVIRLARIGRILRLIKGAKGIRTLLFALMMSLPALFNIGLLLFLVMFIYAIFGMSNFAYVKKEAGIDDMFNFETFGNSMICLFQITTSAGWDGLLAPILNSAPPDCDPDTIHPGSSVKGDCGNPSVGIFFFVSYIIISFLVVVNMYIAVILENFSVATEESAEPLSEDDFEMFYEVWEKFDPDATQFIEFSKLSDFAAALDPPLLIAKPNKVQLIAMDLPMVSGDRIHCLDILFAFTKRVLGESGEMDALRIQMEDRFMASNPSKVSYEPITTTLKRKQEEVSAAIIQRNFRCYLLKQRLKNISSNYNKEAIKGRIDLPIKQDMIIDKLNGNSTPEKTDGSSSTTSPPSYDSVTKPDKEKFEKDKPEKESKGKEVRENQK
Chain of Nav1.4 sodium channel (human SCN4A gene) (P35499 whole entry): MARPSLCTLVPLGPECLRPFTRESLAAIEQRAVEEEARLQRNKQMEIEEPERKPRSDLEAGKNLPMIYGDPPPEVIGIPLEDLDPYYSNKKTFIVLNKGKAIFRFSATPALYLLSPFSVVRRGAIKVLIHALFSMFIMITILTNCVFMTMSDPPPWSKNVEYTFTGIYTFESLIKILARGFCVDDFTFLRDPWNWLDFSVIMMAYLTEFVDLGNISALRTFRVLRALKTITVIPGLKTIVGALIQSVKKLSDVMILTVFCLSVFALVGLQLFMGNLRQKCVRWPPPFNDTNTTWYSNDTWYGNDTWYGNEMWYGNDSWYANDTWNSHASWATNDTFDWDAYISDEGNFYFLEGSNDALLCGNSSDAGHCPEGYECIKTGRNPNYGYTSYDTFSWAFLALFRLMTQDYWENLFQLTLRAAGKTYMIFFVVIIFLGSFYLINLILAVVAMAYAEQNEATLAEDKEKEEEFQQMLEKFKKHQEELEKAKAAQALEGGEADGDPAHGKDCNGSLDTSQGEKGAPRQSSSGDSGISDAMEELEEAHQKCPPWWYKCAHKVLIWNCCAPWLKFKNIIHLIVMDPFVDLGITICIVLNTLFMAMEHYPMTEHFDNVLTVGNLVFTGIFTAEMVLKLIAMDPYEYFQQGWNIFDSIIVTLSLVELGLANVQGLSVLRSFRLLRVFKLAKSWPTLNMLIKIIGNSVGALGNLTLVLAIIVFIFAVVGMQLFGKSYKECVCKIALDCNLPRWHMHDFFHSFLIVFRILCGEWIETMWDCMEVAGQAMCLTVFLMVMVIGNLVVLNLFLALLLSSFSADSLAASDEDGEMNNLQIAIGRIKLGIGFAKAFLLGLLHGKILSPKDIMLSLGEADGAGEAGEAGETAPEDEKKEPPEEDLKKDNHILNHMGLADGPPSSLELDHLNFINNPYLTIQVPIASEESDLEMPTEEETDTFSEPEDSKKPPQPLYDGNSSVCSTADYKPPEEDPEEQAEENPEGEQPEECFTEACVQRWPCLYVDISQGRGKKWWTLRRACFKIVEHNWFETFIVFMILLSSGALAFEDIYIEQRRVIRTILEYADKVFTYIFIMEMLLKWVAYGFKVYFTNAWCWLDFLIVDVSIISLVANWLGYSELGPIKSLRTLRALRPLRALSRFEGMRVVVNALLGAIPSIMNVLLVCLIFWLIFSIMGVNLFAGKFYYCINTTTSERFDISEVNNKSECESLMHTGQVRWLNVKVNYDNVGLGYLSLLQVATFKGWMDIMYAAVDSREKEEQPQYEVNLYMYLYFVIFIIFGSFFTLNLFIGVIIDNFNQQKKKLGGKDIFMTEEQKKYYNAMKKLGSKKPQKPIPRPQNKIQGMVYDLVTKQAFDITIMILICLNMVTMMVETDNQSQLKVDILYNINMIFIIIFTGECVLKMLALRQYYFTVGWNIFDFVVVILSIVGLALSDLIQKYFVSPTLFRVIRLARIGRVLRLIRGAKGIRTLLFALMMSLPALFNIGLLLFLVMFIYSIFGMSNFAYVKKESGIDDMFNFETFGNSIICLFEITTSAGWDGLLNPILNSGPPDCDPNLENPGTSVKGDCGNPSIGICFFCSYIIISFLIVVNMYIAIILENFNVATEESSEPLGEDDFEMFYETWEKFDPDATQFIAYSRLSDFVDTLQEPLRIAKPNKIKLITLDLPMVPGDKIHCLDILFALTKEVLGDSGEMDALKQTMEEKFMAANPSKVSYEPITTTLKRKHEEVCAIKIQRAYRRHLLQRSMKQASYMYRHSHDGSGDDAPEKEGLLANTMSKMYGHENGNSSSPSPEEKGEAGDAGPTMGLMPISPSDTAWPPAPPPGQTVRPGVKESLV
Chain of Kv1.3 potassium channel (human KCNA3 gene) (P22001 whole entry): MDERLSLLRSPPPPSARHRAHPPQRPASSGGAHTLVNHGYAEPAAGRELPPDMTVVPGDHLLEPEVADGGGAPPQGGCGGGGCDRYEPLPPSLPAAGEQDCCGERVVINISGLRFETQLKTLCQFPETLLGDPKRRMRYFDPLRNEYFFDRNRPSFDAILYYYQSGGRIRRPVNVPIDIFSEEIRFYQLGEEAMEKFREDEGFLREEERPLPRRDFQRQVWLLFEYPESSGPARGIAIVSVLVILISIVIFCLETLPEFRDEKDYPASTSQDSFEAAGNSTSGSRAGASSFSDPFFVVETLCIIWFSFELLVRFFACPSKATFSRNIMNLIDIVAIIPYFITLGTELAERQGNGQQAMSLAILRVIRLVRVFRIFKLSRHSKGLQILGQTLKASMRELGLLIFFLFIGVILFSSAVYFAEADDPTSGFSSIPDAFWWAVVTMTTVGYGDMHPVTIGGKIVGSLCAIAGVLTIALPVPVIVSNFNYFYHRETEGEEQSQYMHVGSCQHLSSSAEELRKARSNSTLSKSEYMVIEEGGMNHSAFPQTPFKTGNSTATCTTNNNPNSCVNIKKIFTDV
T1 sequence (P22001 whole entry): as above
Chain of Kv1.5 potassium channel (human KCNA5 gene) (P22460 whole entry): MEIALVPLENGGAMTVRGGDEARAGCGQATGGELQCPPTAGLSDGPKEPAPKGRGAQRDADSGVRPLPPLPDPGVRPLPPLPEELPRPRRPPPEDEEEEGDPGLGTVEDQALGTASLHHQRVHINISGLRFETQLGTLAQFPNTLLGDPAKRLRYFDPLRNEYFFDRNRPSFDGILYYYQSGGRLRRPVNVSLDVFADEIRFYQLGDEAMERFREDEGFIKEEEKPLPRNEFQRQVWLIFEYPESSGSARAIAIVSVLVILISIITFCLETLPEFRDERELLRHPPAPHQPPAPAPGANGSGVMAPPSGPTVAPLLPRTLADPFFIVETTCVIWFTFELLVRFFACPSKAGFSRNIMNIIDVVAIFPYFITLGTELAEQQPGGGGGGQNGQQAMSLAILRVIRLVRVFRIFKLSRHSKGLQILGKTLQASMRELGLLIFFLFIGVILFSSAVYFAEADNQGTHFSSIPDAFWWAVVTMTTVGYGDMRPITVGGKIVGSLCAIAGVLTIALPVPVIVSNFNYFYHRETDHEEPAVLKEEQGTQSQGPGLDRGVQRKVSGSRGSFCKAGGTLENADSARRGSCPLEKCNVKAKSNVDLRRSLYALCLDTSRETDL

The IC50 is the point on the concentration scale where inhibition reaches its midpoint. `CC[C@H](C)[C@@H]1NC(=O)[C@@H]2CSSC[C@H](NC(=O)[C@H](CCCCN)NC(=O)[C@@H](NC(=O)[C@H](CC(N)=O)NC(=O)[C@@H](NC(=O)[C@@H]3CCCN3C(=O)[C@@H](NC(=O)CNC(=O)[C@H](CO)NC(=O)CN)C(C)C)[C@@H](C)CC)C(C)C)C(=O)N[C@@H](CCCNC(=N)N)C(=O)NCC(=O)N[C@@H](CO)C(=O)N[C@@H](CCCNC(=N)N)C(=O)N[C@@H](CC(=O)O)C(=O)N[C@H]3CSSC[C@H](NC(=O)[C@H](CCCCN)NC(=O)[C@H](CO)NC(=O)[C@H](CC(N)=O)NC1=O)C(=O)N[C@@H](Cc1c[nH]cn1)C(=O)N[C@H](C(=O)N[C@H](C(=O)N1CCC[C@H]1C(=O)O)[C@@H](C)O)CSSC[C@H](NC(=O)[C@@H]1CCCN1C(=O)[C@H](CC(=O)O)NC(=O)[C@H](CC(C)C)NC3=O)C(=O)N[C@@H](CCCCN)C(=O)N[C@@H](CCCCN)C(=O)N[C@@H](C)C(=O)NCC(=O)N[C@@H](CCSC)C(=O)N[C@@H](CCCNC(=N)N)C(=O)N[C@@H](Cc1ccccc1)C(=O)NCC(=O)N[C@@H](CCCCN)C(=O)N2` [SEQ ID NO: 5] (H-GSGVPINVKCRGSRDCLDPCKKAGMRFGKCINSKCHCTP-OH; disulfide 10-30, 16-35, 20-37): the IC50 in data set [1] (setting [11]), in data set [1] (setting [12]), in data set [3] (setting [14]), in data set [3] (setting [15]), in data set [4] (setting [16]) and in data set [4] (setting [17]) was more than 1000 nM each time. Further, the IC50 in data set [5], in data set [6] (setting [18]), in data set [6] (setting [19]), in data set [7] (setting [20]), in [7] (setting [21]) and in [8] was more than 1000 nM each time. Moreover, the activity at 20 µM at Kv1.3 [2] (setting [13]) is less than 50%. Moreover, the “Activity on potassium channels” value with panel of 20 ion channels is reported as “active on a subset of potassium channels”. Moreover, the “Activity against / inhibition of hERG (Kv11.1)” value at hERG is given as “showed additional activity”. On Nav1.7, the “Activity against Nav1.7 channels” value is given as “showed additional activity”.

Regarding `CC[C@H](C)[C@H](NC(=O)[C@H](CCCNC(=N)N)NC(=O)[C@@H](NC(=O)[C@H](CO)NC(=O)CN)C(C)C)C(=O)N1CCC[C@H]1C(=O)N[C@H](C(=O)N[C@@H](CO)C(=O)N[C@H]1CSSC[C@@H]2NC(=O)[C@H](CCCCN)NC(=O)CNC(=O)[C@H](Cc3ccccc3)NC(=O)[C@H](CCCNC(=N)N)NC(=O)[C@H](CCSC)NC(=O)CNC(=O)[C@H](C)NC(=O)[C@H](CC(=O)O)NC(=O)[C@H](CCCCN)NC(=O)[C@@H]3CSSC[C@@H](C(=O)N[C@H](C(=O)N4CCC[C@H]4C(=O)N[C@@H](CCCCN)C(=O)O)[C@@H](C)O)NC(=O)[C@H](CC(=O)O)NC(=O)[C@H](CSSC[C@H](NC(=O)[C@H](CCC(N)=O)NC(=O)CNC(=O)[C@H](CO)NC(=O)[C@H](Cc4c[nH]cn4)NC(=O)[C@H](CCCCN)NC1=O)C(=O)N[C@@H](CC(C)C)C(=O)N[C@@H](CCCCN)C(=O)N1CCC[C@H]1C(=O)N3)NC(=O)[C@H](CCCCN)NC(=O)CNC(=O)[C@H](CC(N)=O)NC(=O)[C@H](CCSC)NC2=O)C(C)C` [SEQ ID NO: 6] (H-GSVRIPVSCKHSGQCLKPCKDAGMRFGKCMNGKCDCTPK-OH; disulfide 9-29, 15-34, 19-36), at Kv1.3 [2] (Kv1.3, peptide at 0.2 μM, percentage of control, 100% = no change, read-out: Ion channel activity (ion channel inhibition)), the activity at 0.2 µM was less than 80%. In addition, the activity at 20 µM at Kv1.3 [2] (setting [13]) and on Kv1.1 was less than 50% in each case. Further, the “Activity on potassium channels” value with panel of 20 ion channels is listed as “active on a subset of potassium channels”. The IC50 in data set [9] is more than 1000 nM.

Consider `CC[C@H](C)[C@@H]1NC(=O)[C@H](CCC(=O)O)NC(=O)[C@H](CCCNC(=N)N)NC(=O)[C@H](CCCNC(=N)N)NC(=O)[C@@H]2CSSC[C@@H](C(=O)N[C@@H](Cc3ccc(O)cc3)C(=O)N[C@@H](CCCNC(=N)N)C(=O)N[C@@H](CC(N)=O)C(=O)O)NC(=O)[C@H](C(C)C)NC(=O)[C@@H]3CSSC[C@H](NC(=O)[C@H](CO)NC(=O)CNC(=O)CNC(=O)[C@H](CCC(N)=O)NC(=O)[C@@H](NC(=O)[C@H](CCCCN)NC(=O)[C@@H](NC(=O)[C@H](CC(N)=O)NC(=O)[C@@H](NC(=O)[C@H](CCC(N)=O)NC(=O)[C@@H](NC(=O)[C@H](CCC(N)=O)NC(=O)[C@H](CO)NC(=O)CN)C(C)C)[C@@H](C)O)C(C)C)CSSC[C@H](NC(=O)[C@H](CCCCN)NC(=O)CNC(=O)[C@H](C)NC(=O)[C@H](C)NC(=O)[C@H](C(C)C)NC(=O)CNC1=O)C(=O)N[C@@H]([C@@H](C)CC)C(=O)N[C@@H](CC(N)=O)C(=O)NCC(=O)N[C@@H](CCCCN)C(=O)N3)C(=O)N[C@@H](C)C(=O)N[C@@H](CO)C(=O)N[C@@H](C(C)C)C(=O)N2` [SEQ ID NO: 10] (H-GSQVQTNVKCQGGSCASVCRREIGVAAGKCINGKCVCYRN-OH; disulfide 10-30, 15-35, 19-37), for which the IC50 in data set [1] (setting [11]), in data set [1] (setting [12]), in [3] (setting [14]), in data set [3] (setting [15]), in data set [4] (setting [16]) and in [4] (setting [17]) was more than 1000 nM throughout. Also, the IC50 in data set [5], in data set [6] (setting [18]), in [6] (setting [19]), in [7] (setting [20]), in data set [7] (setting [21]) and in data set [8] was more than 1000 nM throughout.

Regarding “GSNFKVEGACSKPCRKYCIDKGARNGKCINGRCHCYY [SEQ ID NO: 12]”, the Kv1.3 inhibition result on Kv1.3 [2] (0.2 or 20 μM, FIG. 2) is “inhibit Kv1.3, consistent with these results”. Moreover, the “Kv1.3 inhibition, previously reported” value at Kv1.3 [10] is on record as “previously reported to inhibit Kv1.3”.
